Laboratory results taken from patent publication US20240124404A1, “COMPOSITION FOR TREATING DISEASES RELATED TO ADVANCED GLYCATION END PRODUCTS COMPRISING INDOLE DERIVATIVE” (METACEN THERAPEUTICS, priority 2021, published 2024).
Like-named read-outs stand apart in the source and are kept apart here.

Key:
[1] = Methylglyoxal (MGO) trapping ability: fluorescence intensity of reaction product; assay type: biochemical; conditions: compound 1.0 mM in MGO+PBS pH 7.4, 37° C., 1 day; ex 355 nm / em 460 nm; 10×10^3 or more = trapping ability
Method: Methylglyoxal (MGO) is a main precursor of advanced glycation end products that cause complications due to diabetes mellitus. Successful trapping of methylglyoxal (MGO) can inhibit the production of advanced glycation end products.
A mixture was prepared by adding methylglyoxal (MGO) to phosphate buffered saline (PBS, Cat no. 10010023, pH 7.4). […] The fluorescence intensity of the reaction product was measured at an excitation wavelength of 355 nm and an emission wavelength of 460 nm using a VICTOR™X3 multilabel plate reader.
The higher the fluorescence intensity measured from the reaction product, the higher the ability of the compound to trap methylglyoxal. In addition, in this experimental example, when the fluorescence intensity was 10×10^3 or more, it was determined that the compound had the ability to trap methylglyoxal.

[2] = Methylglyoxal (MGO) trapping ability: free MGO concentration by HPLC; assay type: biochemical; conditions: compound 1:1 with MGO in PBS pH 7.4, 37° C.; for MGO concentration on day 7: MGO + PBS control 436.38; for MGO concentration on day 1: MGO + PBS control 499.53
Method: Specifically, a mixture was prepared by adding methylglyoxal (MGO) to phosphate buffered saline (PBS, Cat no. 10010023, pH 7.4). The compound of the present invention was added to the mixture (MGO+PBS) at a concentration of 1:1 with methylglyoxal (MGO) and reacted, and then cultured at 37° C. for 1 day.

N2a cells = assay: Protection against MGO-induced cytotoxicity in N2a cell line (MTT); conditions: Mus musculus
Method: Specifically, N2a cells were dispensed at 2×10^4 cells/well in a 96 well plate. Each cell line was pre-/post-treated with the compound of the present invention at a concentration of 500 nM or aminoguanidine (AG) at a concentration of 1 mM for 1 hour, and then pre-/post-treated with 500 μM MGO, and cultured for 24 hours. The medium was removed and then treated with 0.5 mg/ml 3-(4,5-dimethylthiazol-2-yl)-2,5-diphenyltetrazolium bromide (MTT) solution for 1 hour, and the reduced formazan was dissolved in 150 μl of DMSO, and the cell viability was measured by a microspectrophotometer at a wavelength of 570 nm.

SH-SY5Y cells = assay: Protection against MGO-induced cytotoxicity in SH-SY5Y cell line (MTT); conditions: Homo sapiens
Method: Specifically, SH-SY5Y cells were dispensed at 2×10^4 cells/well in a 96 well plate. Each cell line was pre-/post-treated with the compound of the present invention at a concentration of 500 nM or aminoguanidine (AG) at a concentration of 1 mM for 1 hour, and then pre-/post-treated with 500 μM MGO, and cultured for 24 hours. The medium was removed and then treated with 0.5 mg/ml 3-(4,5-dimethylthiazol-2-yl)-2,5-diphenyltetrazolium bromide (MTT) solution for 1 hour, and the reduced formazan was dissolved in 150 μl of DMSO, and the cell viability was measured by a microspectrophotometer at a wavelength of 570 nm.

[3] = 24 h, read-out: Cell viability, Post-treatment
[4] = read-out: Cell viability, Pre-treatment

Structure (SMILES)	Fluorescence intensity on day 1 (×10^3) [1]	MGO concentration on day 7 [2]	MGO concentration on day 1 [2]	viability at 1000 µM (N2a cells; [3])	viability at 1000 µM (N2a cells; [4])	viability at 1000 µM (SH-SY5Y cells; [3])	viability at 1000 µM (SH-SY5Y cells; [4])
N#CC(N)Cc1c[nH]c2ccc(O)cc12 (stereo not shown) [Compound 31, 2-amino-3-(5-hydroxy-1H indol-3-yl)propanenitrile]	14.58 ± 0.34 ×10^3	0 µM	7.30 µM	–	–	–	–
N=C(N)NN [AG, aminoguanidine]	–	–	–	102 ± 11.9%	111 ± 9.32%	52.01 ± 0.24%	84.7 ± 1.75%
NCC(N)Cc1c[nH]c2ccc(O)cc12 (stereo not shown) [Compound 30, 3-(2,3-diaminopropyl)-1H-indol-5-ol]	156.92 ± 1.22 ×10^3	16.43 µM	235.58 µM	–	–	–	–
N[C@H](CO)Cc1c[nH]c2ccc(O)cc12 [Compound 29, (S)-3-(2-amino-3-hydroxypropyl)-1H-indol-5-ol (L-tryptophanol)]	362.50 ± 17.85 ×10^3	0 µM	18.56 µM	–	–	–	–
